Source: ChEMBL document CHEMBL1154349, “Syntheses of aminoalcohol-derived macrocycles leading to a small-molecule binder to and inhibitor of Sonic Hedgehog” (Bioorg Med Chem Lett, 2009)
pEC50, pKd: −log10 of the molar value. Calls of active or inactive are those of the source. No cut-off for these calls is given here.

Columns and labels:
[1] = target: Sonic hedgehog protein (Mus musculus) (UniProt Q62226); test: Inhibition of SHH in mouse Ptch deffective MEF cells after 30 hrs by Gli-responsive beta-galactosidse reporter gene assay; assay type: cell-based
[2] = Cytotoxicity against mouse Shh Light2 cells by cell titer glo assay; assay type: cell-based; conditions: shh light ii
[3] = target: Sonic hedgehog protein (Homo sapiens, UniProt Q15465); test: Binding affinity to recombinant Shh N-terminal peptide by surface plasma resonance
Sequence of Sonic hedgehog protein (Homo sapiens, UniProt Q15465) (Q15465 24-197 limits assumed): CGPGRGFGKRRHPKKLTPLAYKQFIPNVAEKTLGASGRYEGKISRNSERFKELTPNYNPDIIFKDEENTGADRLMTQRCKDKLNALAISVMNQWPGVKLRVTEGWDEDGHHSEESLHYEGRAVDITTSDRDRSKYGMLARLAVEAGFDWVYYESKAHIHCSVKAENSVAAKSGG

[4] = target: Sonic hedgehog protein (Mus musculus) (UniProt Q62226); test: Inhibition of SHH in mouse Shh Light2 cells after 30 hrs by GLI-responsive bright glo luciferase reporter gene assay relative to 6 uM cyclopamine; assay type: functional, cell-based; conditions: Shh Light II
[5] = target: Sonic hedgehog protein (Mus musculus) (UniProt Q62226); test: (§1) Inhibition of SHH in mouse Shh Light2 cells after 30 hrs by GLI-responsive bright glo luciferase reporter gene assay; assay type: functional, cell-based; conditions: Shh Light II
[6] = target: Sonic hedgehog protein (Mus musculus) (UniProt Q62226); test: Inhibition of SHH in mouse Shh Light2 cells after 30 hrs by GLI-responsive bright glo luciferase reporter gene assay relative to cyclopamine; assay type: functional, cell-based; conditions: Shh Light II
[7] = target: Sonic hedgehog protein (Mus musculus) (UniProt Q62226); test: Inhibition of SHH in mouse Shh Light2 cells after 30 hrs by GLI-responsive bright glo luciferase reporter gene assay at 15.6 uM relative to 6 uM cyclopamine; assay type: functional, cell-based; conditions: Shh Light II
[8] = target: Sonic hedgehog protein (Mus musculus, UniProt Q62226); test: as §1; assay type: functional, cell-based, Shh Light II
Sequence of Sonic hedgehog protein (Mus musculus, UniProt Q62226) (Q62226 25-198 limits assumed): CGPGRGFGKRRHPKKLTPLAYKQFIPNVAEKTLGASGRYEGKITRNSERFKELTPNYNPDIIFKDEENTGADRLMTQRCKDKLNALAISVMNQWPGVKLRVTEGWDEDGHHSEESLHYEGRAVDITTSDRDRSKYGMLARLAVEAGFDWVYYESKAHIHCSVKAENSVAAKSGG

Row | SMILES | inhibition [1] | Activity [2] | Activity [3] | other results
1 | O=C(C[C@@H]1C/C=C/CCCCC(=O)OCCNC1=O)NCc1ccc(Cl)cc1 | inactive | Non-toxic | Dose-dependent effect | ECmax [4]: 70%
2 | O=C(C[C@@H]1C/C=C/CCC(=O)OCCNC1=O)NCc1ccc(Cl)cc1 | inactive | Non-toxic | Dose-dependent effect | ECmax [4]: 55%
3 | O=C(C[C@H]1C/C=C/CCCCC(=O)O[C@@H](c2ccccc2)CNC1=O)NCc1ccc(Cl)cc1 | inactive | Non-toxic | – | –
4 | O=C(C[C@H]1C/C=C/CCC(=O)O[C@H](c2ccccc2)CNC1=O)NCc1ccc(Cl)cc1 | inactive | Non-toxic | Dose-dependent effect | ECmax [5]: 62.5 µM
5 | O=C(C[C@H]1C/C=C/CCCCC(=O)O[C@H](c2ccccc2)CNC1=O)NCc1ccc(Cl)cc1 | inactive | Non-toxic | – | inhibition [3]: inactive
6 | O=C(C[C@H]1C/C=C/CCCC(=O)O[C@H](c2ccccc2)CNC1=O)NCc1ccc(Cl)cc1 | inactive | Non-toxic | – | ECmax [6]: 71%
7 | O=C(C[C@@H]1C/C=C/CCCC(=O)OCCNC1=O)NCc1ccc(Cl)cc1 | inactive | Non-toxic | Dose-dependent effect | –
8 | O=C(C[C@@H]1C/C=C/CCCCC(=O)O[C@@H](c2ccccc2)CNC1=O)NCc1ccc(Cl)cc1 | inactive | > 31 µM | Dose-dependent effect | –
9 | O=C(C[C@H]1C/C=C/CCC(=O)O[C@@H](c2ccccc2)CNC1=O)NCc1ccc(Cl)cc1 | inactive | Non-toxic | Dose-dependent effect | –
10 | O=C(C[C@H]1C/C=C/CCCC(=O)OCCNC1=O)NCc1ccc(Cl)cc1 | inactive | Non-toxic | – | –
11 | O=C(C[C@@H]1C/C=C/CCCC(=O)O[C@H](c2ccccc2)CNC1=O)NCc1ccc(Cl)cc1 | inactive | Non-toxic | Dose-dependent effect | ECmax [4]: 93%
12 | O=C(C[C@@H]1C/C=C/CCCCC(=O)O[C@H](c2ccccc2)CNC1=O)NCc1ccc(Cl)cc1 | inactive | Non-toxic | Dose-dependent effect | –
13 | O=C(C[C@H]1C/C=C/CCC(=O)OCCNC1=O)NCc1ccc(Cl)cc1 | inactive | Non-toxic | Dose-dependent effect | ECmax [4]: 50%
14 | O=C(C[C@@H]1C/C=C/CCC(=O)O[C@@H](c2ccccc2)CNC1=O)NCc1ccc(Cl)cc1 | inactive | > 15.6 µM | Dose-dependent effect | ECmax [7]: 57%
15 | O=C(C[C@H]1C/C=C/CCCC(=O)O[C@@H](c2ccccc2)CNC1=O)NCc1ccc(Cl)cc1 | inactive | Non-toxic | Dose-dependent effect | pKd [3]: 5.51
16 | O=C(C[C@@H]1C/C=C/CCC(=O)O[C@H](c2ccccc2)CNC1=O)NCc1ccc(Cl)cc1 [ROBOTNIKININ] | inactive | Non-toxic | Dose-dependent effect | pEC50 [8]: 5.40; ECmax [4]: 91%
17 | O=C(C[C@H]1C/C=C/CCCCC(=O)OCCNC1=O)NCc1ccc(Cl)cc1 | inactive | Non-toxic | – | –
18 | O=C(C[C@@H]1C/C=C/CCCC(=O)O[C@@H](c2ccccc2)CNC1=O)NCc1ccc(Cl)cc1 | inactive | Non-toxic | Dose-dependent effect | –
